Assays:
barnyardgrass [1] = assay: Test C preemergence; type: in vivo, Echinochloa crusgalli; conditions: for Barnyardgrass plant response rating: preemergence, 0 to 100 scale (0 no effect, 100 complete control)
In short: (§1)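 Soil-applied (pre) and foliar (post, 1–2 leaf, 2–10 cm) sprays; surfactant-containing non-phytotoxic solvent vehicle; loam/sand substrate. Readout: visual % control at 10 d, greenhouse, versus untreated.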

galium = assay: Test C postemergence; type: in vivo, Galium aparine; conditions: 10 days, 0 to 100 scale (0 no effect, 100 complete control)
In short: as §1

oat, wild [2] = assay: Test C preemergence; type: in vivo, Avena fatua; conditions: for Oat, Wild plant response rating: preemergence, 0 to 100 scale (0 no effect, 100 complete control)
In short: as §1

ryegrass, Italian [3] = assay: Test C postemergence; type: in vivo, Lolium multiflorum; conditions: 10 days, 0 to 100 scale (0 no effect, 100 complete control)
In short: as §1

horseweed = assay: Test C postemergence; type: in vivo, Erigeron canadensis; conditions: 10 days, 0 to 100 scale (0 no effect, 100 complete control)
In short: as §1

kochia [4] = assay: Test C postemergence; type: in vivo, Bassia scoparia; conditions: 10 days, 0 to 100 scale (0 no effect, 100 complete control)
In short: as §1

kochia [5] = assay: Test C preemergence; type: in vivo, Bassia scoparia; conditions: for Kochia plant response rating: preemergence, 0 to 100 scale (0 no effect, 100 complete control)
In short: as §1

soybean [6] = assay: Test C postemergence; type: in vivo, Glycine max; conditions: 10 days, 0 to 100 scale (0 no effect, 100 complete control)
In short: as §1

barnyardgrass [7] = assay: Test C postemergence; type: in vivo, Echinochloa crusgalli; conditions: 10 days, 0 to 100 scale (0 no effect, 100 complete control)
In short: as §1

ryegrass, Italian [8] = assay: Test C preemergence; type: in vivo, Lolium multiflorum; conditions: for Ryegrass, Italian plant response rating: preemergence, 0 to 100 scale (0 no effect, 100 complete control)
In short: as §1

green foxtail [9] = assay: Test C preemergence; type: in vivo, Setaria viridis; conditions: for Foxtail, Green plant response rating: preemergence, 0 to 100 scale (0 no effect, 100 complete control)
In short: as §1

ragweed [10] = assay: Test C postemergence; type: in vivo, Ambrosia artemisiifolia; conditions: 10 days, 0 to 100 scale (0 no effect, 100 complete control)
In short: as §1

ducksalad = assay: Test D flooded paddy test; type: in vivo, Heteranthera limosa; conditions: 250 g ai/ha, applied to paddy water, visual rating after 13 to 14 days, scale 0 to 100 (0 no effect, 100 complete control)
In short: (§2)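 Rating scale 0–100 (0 no effect, 100 complete control), visual, versus controls. Readout at 13–14 days after in-water application to 2-leaf plants in pots flooded 3 cm deep.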

soybean [11] = assay: Test C preemergence; type: in vivo, Glycine max; conditions: for Soybean plant response rating: preemergence, 0 to 100 scale (0 no effect, 100 complete control)
In short: as §1

oat, wild [12] = assay: Test C postemergence; type: in vivo, Avena fatua; conditions: 10 days, 0 to 100 scale (0 no effect, 100 complete control)
In short: as §1

pigweed, palmer [13] = assay: Test C preemergence; type: in vivo, Amaranthus palmeri; conditions: for Pigweed, Palmer plant response rating: preemergence, 0 to 100 scale (0 no effect, 100 complete control)
In short: as §1

corn [14] = assay: Test C preemergence; type: in vivo, Zea mays; conditions: for Corn plant response rating: preemergence, 0 to 100 scale (0 no effect, 100 complete control)
In short: as §1

barnyardgrass [15] = assay: Test D flooded paddy test; type: in vivo, Echinochloa crus-galli; conditions: 250 g ai/ha, applied to paddy water, visual rating after 13 to 14 days, scale 0 to 100 (0 no effect, 100 complete control)
In short: as §2

green foxtail [16] = assay: Test C postemergence; type: in vivo, Setaria viridis; conditions: 10 days, 0 to 100 scale (0 no effect, 100 complete control)
In short: as §1

ragweed [17] = assay: Test C preemergence; type: in vivo, Ambrosia artemisiifolia; conditions: for Ragweed plant response rating: preemergence, 0 to 100 scale (0 no effect, 100 complete control)
In short: as §1

sedge, umbrella = assay: Test D flooded paddy test; type: in vivo, Cyperus difformis; conditions: 250 g ai/ha, applied to paddy water, visual rating after 13 to 14 days, scale 0 to 100 (0 no effect, 100 complete control)
In short: as §2

wheat [18] = assay: Test C postemergence; type: in vivo, Triticum aestivum; conditions: 10 days, 0 to 100 scale (0 no effect, 100 complete control)
In short: as §1

blackgrass [19] = assay: Test C postemergence; type: in vivo, Alopecurus myosuroides; conditions: 10 days, 0 to 100 scale (0 no effect, 100 complete control)
In short: as §1

pigweed, palmer [20] = assay: Test C postemergence; type: in vivo, Amaranthus palmeri; conditions: 10 days, 0 to 100 scale (0 no effect, 100 complete control)
In short: as §1

blackgrass [21] = assay: Test C preemergence; type: in vivo, Alopecurus myosuroides; conditions: for Blackgrass plant response rating: 500 g ai/ha, preemergence, 0 to 100 scale (0 no effect, 100 complete control)
In short: as §1

corn [22] = assay: Test C postemergence; type: in vivo, Zea mays; conditions: 10 days, 0 to 100 scale (0 no effect, 100 complete control)
In short: as §1

wheat [23] = assay: Test C preemergence; type: in vivo, Triticum aestivum; conditions: for Wheat plant response rating: preemergence, 0 to 100 scale (0 no effect, 100 complete control)
In short: as §1

rice = assay: Test D flooded paddy test; type: in vivo, Oryza sativa; conditions: 250 g ai/ha, applied to paddy water, visual rating after 13 to 14 days, scale 0 to 100 (0 no effect, 100 complete control)
In short: as §2

[24] = Preemergence, 125 g ai/ha, 0 to 100 scale, 0 no effect, 100 complete control

Cc1ccc(-n2cnc(C(C)C)n2)cc1C(=O)N1CC(C(F)(F)F)Oc2c(Cl)cccc21 (stereo not shown) [Compound 354]
Barnyardgrass plant response rating (barnyardgrass [1]; 500 g ai/ha): 100
Plant response rating, Barnyardgrass (barnyardgrass [1]; [24]): 90
Plant response rating, Galium (galium; 500 g ai/ha, postemergence): 100
Plant response rating, Galium (galium; Postemergence, 125 g ai/ha): 100
Oat, Wild plant response rating (oat, wild [2]; 500 g ai/ha): 90
Plant response rating, Oat, Wild (oat, wild [2]; [24]): 80
Plant response rating, Ryegrass, Italian (ryegrass, Italian [3]; 500 g ai/ha, postemergence): 70
Plant response rating, Ryegrass, Italian (ryegrass, Italian [3]; Postemergence, 125 g ai/ha): 20
Plant response rating, Horseweed (horseweed; 500 g ai/ha, postemergence): 80
Plant response rating, Horseweed (horseweed; Postemergence, 125 g ai/ha): 30
Plant response rating, Kochia (kochia [4]; 500 g ai/ha, postemergence): 90
Plant response rating, Kochia (kochia [4]; Postemergence, 125 g ai/ha): 80
Kochia plant response rating (kochia [5]; 500 g ai/ha): 80
Plant response rating, Kochia (kochia [5]; [24]): 0
Plant response rating, Soybean (soybean [6]; 500 g ai/ha, postemergence): 100
Plant response rating, Soybean (soybean [6]; Postemergence, 125 g ai/ha): 100
Plant response rating, Barnyardgrass (barnyardgrass [7]; 500 g ai/ha, postemergence): 70
Plant response rating, Barnyardgrass (barnyardgrass [7]; Postemergence, 125 g ai/ha): 30
Ryegrass, Italian plant response rating (ryegrass, Italian [8]; 500 g ai/ha): 100
Plant response rating, Ryegrass, Italian (ryegrass, Italian [8]; [24]): 90
Foxtail, Green plant response rating (green foxtail [9]; 500 g ai/ha): 100
Plant response rating, Foxtail, Green (green foxtail [9]; [24]): 100
Plant response rating, Ragweed (ragweed [10]; 500 g ai/ha, postemergence): 70
Plant response rating, Ragweed (ragweed [10]; Postemergence, 125 g ai/ha): 50
Plant response rating, Ducksalad (Flood) (ducksalad): 0
Soybean plant response rating (soybean [11]; 500 g ai/ha): 100
Plant response rating, Soybean (soybean [11]; [24]): 50
Plant response rating, Oat, Wild (oat, wild [12]; 500 g ai/ha, postemergence): 90
Plant response rating, Oat, Wild (oat, wild [12]; Postemergence, 125 g ai/ha): 60
Pigweed, Palmer plant response rating (pigweed, palmer [13]; 500 g ai/ha): 100
Plant response rating, Pigweed, Palmer (pigweed, palmer [13]; [24]): 100
Corn plant response rating (corn [14]; 500 g ai/ha): 40
Plant response rating, Corn (corn [14]; [24]): 20
Plant response rating, Barnyardgrass (Flood) (barnyardgrass [15]): 0
Plant response rating, Foxtail, Green (green foxtail [16]; 500 g ai/ha, postemergence): 90
Plant response rating, Foxtail, Green (green foxtail [16]; Postemergence, 125 g ai/ha): 40
Ragweed plant response rating (ragweed [17]; 500 g ai/ha): 100
Plant response rating, Ragweed (ragweed [17]; [24]): 10
Plant response rating, Sedge, Umbrella (Flood) (sedge, umbrella): 0
Plant response rating, Wheat (wheat [18]; 500 g ai/ha, postemergence): 60
Plant response rating, Wheat (wheat [18]; Postemergence, 125 g ai/ha): 30
Plant response rating, Blackgrass (blackgrass [19]; 500 g ai/ha, postemergence): 20
Plant response rating, Blackgrass (blackgrass [19]; Postemergence, 125 g ai/ha): 0
Plant response rating, Pigweed, Palmer (pigweed, palmer [20]; 500 g ai/ha, postemergence): 100
Plant response rating, Pigweed, Palmer (pigweed, palmer [20]; Postemergence, 125 g ai/ha): 80
Blackgrass plant response rating (blackgrass [21]): 90
Plant response rating, Blackgrass (blackgrass [21]; [24]): 80
Plant response rating, Corn (corn [22]; 500 g ai/ha, postemergence): 60
Plant response rating, Corn (corn [22]; Postemergence, 125 g ai/ha): 20
Wheat plant response rating (wheat [23]; 500 g ai/ha): 90
Plant response rating, Wheat (wheat [23]; [24]): 30
Plant response rating, Rice (Flood) (rice): 0

Cc1cccc2c1O[C@@H](C)CN2C(=O)c1cccc(-n2cnc([N+](=O)[O-])n2)c1 [Compound 306]
Barnyardgrass plant response rating (barnyardgrass [1]; 500 g ai/ha): 0
Barnyardgrass plant response rating (barnyardgrass [1]; Test C, 125 g ai/ha): 0
Plant response rating, Galium (galium; 500 g ai/ha, postemergence): 50
Plant response rating, Galium (galium; Postemergence, 125 g ai/ha): 30
Oat, Wild plant response rating (oat, wild [2]; 500 g ai/ha): 0
Oat, Wild plant response rating (oat, wild [2]; Test C, 125 g ai/ha): 0
Plant response rating, Ryegrass, Italian (ryegrass, Italian [3]; 500 g ai/ha, postemergence): 0
Plant response rating, Ryegrass, Italian (ryegrass, Italian [3]; Postemergence, 125 g ai/ha): 0
Plant response rating, Horseweed (horseweed; 500 g ai/ha, postemergence): 0
Plant response rating, Horseweed (horseweed; Postemergence, 125 g ai/ha): 30
Plant response rating, Kochia (kochia [4]; 500 g ai/ha, postemergence): 10
Plant response rating, Kochia (kochia [4]; Postemergence, 125 g ai/ha): 10
Kochia plant response rating (kochia [5]; 500 g ai/ha): 0
Kochia plant response rating (kochia [5]; Test C, 125 g ai/ha): 0
Plant response rating, Soybean (soybean [6]; 500 g ai/ha, postemergence): 90
Plant response rating, Soybean (soybean [6]; Postemergence, 125 g ai/ha): 30
Plant response rating, Barnyardgrass (barnyardgrass [7]; 500 g ai/ha, postemergence): 10
Plant response rating, Barnyardgrass (barnyardgrass [7]; Postemergence, 125 g ai/ha): 10
Ryegrass, Italian plant response rating (ryegrass, Italian [8]; 500 g ai/ha): 40
Ryegrass, Italian plant response rating (ryegrass, Italian [8]; Test C, 125 g ai/ha): 30
Foxtail, Green plant response rating (green foxtail [9]; 500 g ai/ha): 50
Foxtail, Green plant response rating (green foxtail [9]; Test C, 125 g ai/ha): 0
Plant response rating, Ragweed (ragweed [10]; 500 g ai/ha, postemergence): 0
Plant response rating, Ragweed (ragweed [10]; Postemergence, 125 g ai/ha): 30
Plant response rating, Ducksalad (Flood) (ducksalad): 0
Soybean plant response rating (soybean [11]; 500 g ai/ha): 0
Soybean plant response rating (soybean [11]; Test C, 125 g ai/ha): 0
Plant response rating, Oat, Wild (oat, wild [12]; 500 g ai/ha, postemergence): 0
Plant response rating, Oat, Wild (oat, wild [12]; Postemergence, 125 g ai/ha): 0
Pigweed, Palmer plant response rating (pigweed, palmer [13]; 500 g ai/ha): 10
Pigweed, Palmer plant response rating (pigweed, palmer [13]; Test C, 125 g ai/ha): 0
Corn plant response rating (corn [14]; 500 g ai/ha): 0
Corn plant response rating (corn [14]; Test C, 125 g ai/ha): 0
Plant response rating, Barnyardgrass (Flood) (barnyardgrass [15]): 0
Plant response rating, Foxtail, Green (green foxtail [16]; 500 g ai/ha, postemergence): 50
Plant response rating, Foxtail, Green (green foxtail [16]; Postemergence, 125 g ai/ha): 30
Ragweed plant response rating (ragweed [17]; 500 g ai/ha): 20
Ragweed plant response rating (ragweed [17]; Test C, 125 g ai/ha): 20
Plant response rating, Sedge, Umbrella (Flood) (sedge, umbrella): 0
Plant response rating, Wheat (wheat [18]; 500 g ai/ha, postemergence): 10
Plant response rating, Wheat (wheat [18]; Postemergence, 125 g ai/ha): 0
Plant response rating, Blackgrass (blackgrass [19]; 500 g ai/ha, postemergence): 10
Plant response rating, Blackgrass (blackgrass [19]; Postemergence, 125 g ai/ha): 0
Plant response rating, Pigweed, Palmer (pigweed, palmer [20]; 500 g ai/ha, postemergence): 20
Plant response rating, Pigweed, Palmer (pigweed, palmer [20]; Postemergence, 125 g ai/ha): 0
Blackgrass plant response rating (blackgrass [21]): 0
Plant response rating, Corn (corn [22]; 500 g ai/ha, postemergence): 10
Plant response rating, Corn (corn [22]; Postemergence, 125 g ai/ha): 0
Wheat plant response rating (wheat [23]; 500 g ai/ha): 0
Wheat plant response rating (wheat [23]; Test C, 125 g ai/ha): 0
Plant response rating, Rice (Flood) (rice): 0

From patent US20260262643A1, “HERBICIDAL BENZOXAZINES” (FMC CORPORATION, priority 2022, published 2026)
